Laboratory results from patent US4035394A, “5-Phenyl-2-furanyl-oxo or-hydroxy alkanoic acids and ethyl esters as gastric acid antisecretory agents” (Morton-Norwich Products, Inc., priority 1976, dated 1977).

System: gastric acid secretion
Test: modified standard pylorus-ligated secretory testing procedure in the rat
Type: in vivo, Sprague-Dawley rat
Conditions: 300 mg/kg p.o. suspension in 0.5% Methocel 1 hour prior to pylorus ligation, 4 hours after ligation; for % Inhibition Gastric Acid Output: titration to pH7, vs control; for % Inhibition Vol. of Gastric Secretion: vs control
Procedure: Such effect is evidenced using a modified standard pylorus-ligated secretory testing procedure in the rat. Sprague-Dawley rats, weighing 180-210 g and previously fasted for 24 hours, were used. All compounds were given perorally as suspensions in 0.5% Methocel 1 hour prior to pylorus ligation. Under light ether anesthesia, the rat stomach was ligated at the pylorus region. Four hours after ligation the conscious rat was sacrificed by a chloroform overdose. The stomach was carefully excised and its content drained into a centrifuge tube. Samples were centrifuged to separate secretions from debris. Gastric fluid volume reading and determination of sample contamination, based on debris and sample color, was made. Titration was performed on a sample aliquot of 1 ml diluted to a volume of 5 ml using distilled water. The titrant used was 0.1N NaOH. Total gastric acid output in the stomach was determined by titration to pH7. A dose of 300 mg/kg p.o. of a compound was administered to a group of rats and its effect on the volume of gastric secretion and acid output compared to a control group receiving 0.5% Methocel p.o. The activity of each compound based on the degree of inhibition of gastric acid output is set forth in Table I.

## CCOC(=O)CC(O)c1ccc(-c2ccc([N+](=O)[O-])cc2)o1 (stereo not drawn) [Example I, Ethyl 3-[5-(4-Nitrophenyl)-2-furanyl]-3-hydroxypropanoate]
  % Inhibition Gastric Acid Output: 43.1%
  % Inhibition Vol. of Gastric Secretion: 33.17%

## O=C(O)CCC(O)c1ccc(-c2ccc(Cl)cc2)o1 (stereo not drawn) [II, 4-[5-(4-Chlorophenyl)-2-furanyl]-4-hydroxybutanoic Acid]
  % Inhibition Gastric Acid Output: 72.3%
  % Inhibition Vol. of Gastric Secretion: 47.3%

## O=C(O)CC(O)c1ccc(-c2ccccc2Cl)o1 (stereo not drawn) [III, 3-[5-(2-Chlorophenyl)-2-furanyl]-3-hydroxypropanoic Acid]
  % Inhibition Gastric Acid Output: 95.0%
  % Inhibition Vol. of Gastric Secretion: 33.5%

## O=C(O)CCC(=O)c1ccc(-c2ccc(Cl)cc2)o1 [IV, B]
  % Inhibition Gastric Acid Output: 57.1%
  % Inhibition Vol. of Gastric Secretion: 40.7%

## O=C(O)CC(O)c1ccc(-c2ccc(Cl)cc2Cl)o1 (stereo not drawn) [V, 3-[5-(2,4-Dichlorophenyl)-2-furanyl]-3-hydroxypropanoic Acid]
  % Inhibition Gastric Acid Output: 45.4%
  % Inhibition Vol. of Gastric Secretion: 3.4%

## CCOC(=O)CC(=O)c1ccc(-c2ccc(Cl)cc2)o1 [VI, B]
  % Inhibition Gastric Acid Output: 50.0%
  % Inhibition Vol. of Gastric Secretion: 19.8%
